The values that follow come from patent publication US9216179B2, “Treatment of gout and hyperuricemia” (ARDEA BIOSCIENCES, INC., priority 2010, dated 2015).

The test system of series [1] is gout patients with sUA greater than 8 mg/dL. Kind of series: Example 7: open-label clinical pharmacology study, combination with allopurinol. In kind it is in vivo, human. As to the method: This 20-patient, open-label clinical pharmacology study included 2 cohorts of gout patients with sUA greater than 8 mg/dL on no urate-lowering therapy who began colchicine dosing one week prior to baseline and continued for 5 weeks. […] Elevations in CK and rhabdomyolysis are known side effects of colchicine.

The subject of series [2] is individuals treated with the drug. The conditions noted are these: in vivo; cited from earlier work.
The subject of series [3] is gout patients. The conditions noted are these: controlled trials; cited from earlier work.
Series [4] concerns Patients. The conditions noted are these: Allopurinol Alone. Here is the method: B: Patients received allopurinol alone for one week. For the second week, Panel 1 received a compound of Formula I (400 mg) and Panel 2 received a compound of Formula I (600 mg) in combination with allopurinol 300 mg.
The test system of series [5] is gout patients with elevated uric acid levels. The note with it: for serious adverse events or deaths: Phase 2b study, 28 days.
Experimental: In some embodiments, for patients randomized to receive 400 mg a compound of formula I and 600 mg of a compound of formula I, a daily dose of compound of formula I was escalated weekly in increments of 200 mg/day.
Series [6] deals with patients with gout. Kind of series: Phase II gout dose response study, Lesinurad versus placebo (incidence of gout flares). In kind it is in vivo, human. Here is the method:
Purpose: To compare the proportion of subjects whose serum urate (sUA) level is <6.0 mg/dL after 28 days of dosing by treatment group.
Official Title: Randomized, Double-Blind, Multicenter, Placebo-Controlled, Safety and Efficacy Study of Lesinurad Versus Placebo in the Treatment of Hyperuricemia in Patients With Gout
Experimental Dosage Form: 200 mg capsule of Lesinurad, with appropriate pharmaceutically acceptable excipients
Primary Outcome Measures: Compare the proportion of subjects whose serum urate (sUA) level is <6.0 mg/dL after 28 days of dosing by treatment group.
Secondary Outcome Measures: • Evaluate the proportion of subjects with sUA levels <6.0 mg/dL at each weekly study visit. • Evaluate absolute and percent reduction from baseline in sUA levels at each weekly study visit. • Evaluate the percent change in 24-hr urine urate level (excretion) from baseline to Day 28. • Evaluate the incidence of gout flares. • Evaluate the safety and tolerability of Lesinurad in subjects with gout.
Inclusion Criteria: • Male or post-menopausal or surgically sterile female. • Hyperuricemic (i.e., screening sUA ≧8 mg/dL). • Meets criteria for the diagnosis of gout as per the American Rheumatism Association (ARA) Criteria for the Classification of Acute Arthritis of Primary Gout (see Appendix B). • Willing and able to give informed consent and adhere to visit/protocol schedules (informed consent must be given before the first study procedure is performed).
Results: Incidence of gout flares are presented in Table 2 below indicating the majority of flares occurred in the first week when patients were receiving 200 mg QD (6/10 total flares on drug). Few additional flares occurred as dose increased, even with greater decrease in sUA. Duration of flares is shorter at higher doses, the opposite of what would be expected with greater reduction in sUA.

In series [7] the test system is Patients. Kind of series: Example 4 A: allopurinol 300 mg QD for 1 week followed by compound of Formula I, serum uric acid. In kind it is in vivo, human. Here is the method: A: Patients received allopurinol 300 mg QD for 1 week followed by a compound of Formula I. A compound of Formula I (200 mg) reduced serum uric acid levels 9% beyond the reduction observed for allopurinol alone. Titration up to 400 mg of a compound of Formula I provided further reduction of serum uric acid levels by 6%. The combination of a compound of Formula I (400 mg) and allopurinol provided 100% response (i.e., sUA <6 mg/dL) and an 80% sUA reduction below 5 mg/dL. These responses are illustrated in FIG. 6.

Series [8] has as its system gout patients with sUA greater than 8 mg/dL. Kind of series: Example 6: open-label clinical pharmacology study, combination with febuxostat. The conditions noted are these: for increases in serum creatinine (Grade): human, in vivo. As to the method: Also provided herein in certain embodiments is an open-label, clinical pharmacology study including 2 cohorts of gout patients with sUA greater than 8 mg/dL on no urate-lowering therapy. In some embodiments, patients received colchicine beginning one week prior to baseline and continuing for 5 weeks for flare prophylaxis. In other embodiments, the first cohort of patients in the study consisted of gout patients with a median baseline sUA of 9.2 mg/dL who were administered 40 mg febuxostat for the first week, 40 mg febuxostat in combination with 400 mg of a compound of formula I for the second week, and then 40 mg febuxostat in combination with 600 mg of a compound of formula I for the third week. […] In some embodiments, less than 40 mg, greater than 40 mg, less than 80 mg, greater than 80 mg, or any suitable amount of febuxostat was administered.
This 21-patient, open-label, clinical pharmacology study included 2 cohorts of gout patients with sUA greater than 8 mg/dL on no urate-lowering therapy. All patients received colchicine beginning one week prior to baseline and continuing for 5 weeks for flare prophylaxis.

For series [9], the system named is individuals treated with probenecid. The note with it: in vivo; cited from earlier work.
In series [10] the test system is IL-1. Kind of series: IL-1 release/production after stimulation (FIG. 1, FIG. 3). The conditions noted are these: FIG. 3.
Series [11] concerns TNF-α. Kind of series: TNF-α production (FIG. 2). The conditions noted are these: FIG. 2, 6 hour time point.
Where [12] appears, read: Cohort 1, allopurinol 300 mg alone.
[13] abbreviates: Cohort 2, allopurinol 300 mg alone.
Setting [14] is: Placebo qd + allopurinol, sUA <6 mg/dL after 4 weeks.
Setting [15] is: Cohort 1, febuxostat 40 mg alone.
[16] abbreviates: Cohort 2, febuxostat 80 mg alone.

As for `Oc1ncnc2[nH]ncc12` [allopurinol], the “patients achieving target sUA levels below 6 mg/dL” value in series [1] (300 mg allopurinol alone) is 20%. Moreover, the “Response rate (<6 mg/dL)” value in [1] (Cohort 1 (median baseline 9.8 mg/dL), allopurinol 300 mg alone) is given as 10%. In [1] (setting [12]), the “Percent patients <5 mg/dL” value was determined as 5%; the “Percent sUA change at trough (median, from baseline)” value (shortened to “Percent sUA change at trough”) is on record as −31%; the “Percent sUA change intraday (median, from baseline)” value (“Percent sUA change intraday” for short) is −38%. For the same compound, the “Response rate (<6 mg/dL)” value in series [1] (Cohort 2 (median baseline 9.1 mg/dL), allopurinol 300 mg alone) worked out at 30%. For the same compound, in [1] (setting [13]), the “Percent patients <5 mg/dL” value is reported as 5%; the “Percent sUA change at trough” value is given as −27%; the “Percent sUA change intraday” value was −35%. The “incidence of side effects, of all individuals treated” value in series [2] is on record as 20%. Also, in [3], the “gout patients responding adequately (sUA less than 6 mg/dL)” value is given as 30-40%. Further, in series [4], the “% Patients <4 mg/dL” value is listed as 0%, the “% Patients <5 mg/dL” value amounted to 9%, the “Response: % Patients <6 mg/dL” value was found to be 63% and the “sUA Mean % Reduction” value is 32%. The “serious adverse events or deaths” value in series [5] is listed as “fatal myocardial infarction”. In series [5] (Placebo qd + allopurinol), the “Mean Change in Serum Urate at Week 4 vs. Baseline on Allopurinol Alone” value is recorded as “+3%”. In series [5] (setting [14]), the “Response Rate (ITT Analysis)” value worked out at 25% and the “Response Rate (LOCF Analysis)” value worked out at 29%. Moreover, in series [5] (human, in vivo), the “patients who discontinued treatment due to an adverse event” value is “three”.
In the case of `O=C(O)CSc1nnc(Br)n1-c1ccc(C2CC2)c2ccccc12` [Formula I, 2-(5-bromo-4-(4-cyclopropylnaphthalen-1-yl)-4H-1,2,4-triazol-3-ylthio)acetic acid], the “Percent patients <5 mg/dL” value is on record as 0% in [1] (Cohort 1, 400 mg alone) and 33% in series [1] (Cohort 2, 600 mg alone). In addition, the “Percent sUA change at trough” value in [1] (Cohort 1, 400 mg alone) is given as −28%; in [1] (Cohort 2, 600 mg alone), −39%. The “Percent sUA change intraday” value is recorded as −44% in [1] (Cohort 1, 400 mg alone) and −54% in [1] (Cohort 2, 600 mg alone). Further, the “Response rate (<6 mg/dL)” value in series [1] (Cohort 1, 400 mg alone) was found to be 20%; in series [1] (Cohort 2, 600 mg alone, listed as 2-(5-bromo-4-(4-cyclopropylnaphthalen-1-yl)-4H-1,2,4-triazol-3-ylthio)acetate) it was 67%. Besides, in series [1] (human, in vivo), the “serious adverse events or discontinuations considered possibly related” value is given as “no serious adverse events or discontinuations”. For the same compound, the “% of patients with Flares by Dose at Time of Flare” value in series [6] (200 mg at time of flare) was 6% (6/96); in series [6] (400 mg at time of flare), 2% (1/65); in series [6] (600 mg at time of flare) it was 9% (3/32). The “Mean Duration of Flares (by Dose at Time of Flare)” value is 4 days in series [6] (200 mg at time of flare), 2 days in series [6] (400 mg at time of flare) and 1.7 days in [6] (600 mg at time of flare). Moreover, the “Mean Duration of Flares” value amounted to 4 days in series [6] (Randomized Dose Group 200 mg), 3.8 days in series [6] (Randomized Dose Group 400 mg) and 1.5 days in series [6] (Randomized Dose Group 600 mg). In addition, the “% Patients with Flares” value is reported as 6% in series [6] (Randomized Dose Group 200 mg qd for 28 days); 12% in series [6] (Randomized Dose Group 400 mg (200 mg 7 days, 400 mg 21 days)); 13% in [6] (Randomized Dose Group 600 mg (200 mg 7 days, 400 mg 7 days, 600 mg 14 days)). Further, the “reduction of serum uric acid levels beyond the reduction observed for allopurinol alone” value in [7] (Formula I 200 mg after allopurinol 300 mg QD for 1 week) was determined as 9%. Further, the “further reduction of serum uric acid levels” value in [7] (titration up to 400 mg) was determined as 6%. Besides, the figures for the “additional sUA reduction compared to febuxostat alone” value in [8] (addition of 600 mg to 40 mg febuxostat) and in series [8] (addition of 600 mg to 80 mg febuxostat) were 39% and 51%, respectively. Also, the “increases in serum creatinine (Grade)” value in series [8] is on record as “no Grade 2 or higher increases”. Besides, the “serious adverse events or deaths” value in series [5] is reported as “no serious adverse events or deaths”.
In the case of `CCCN(CCC)S(=O)(=O)c1ccc(C(=O)O)cc1` [probenecid], in [9], the individuals developing intolerance entry is on record as “one-third” and the “individuals failing to achieve reduction of serum uric acid levels <6 mg/dL” value is reported as 25-50%.
Turning to `COc1cc2c(c(OC)c1OC)-c1ccc(OC)c(=O)cc1[C@@H](NC(C)=O)CC2` [colchicine], in [8], the “increases in serum creatinine (Grade)” value is reported as “one Grade 2 serum creatinine increase”.
For the compound rilonacept, the IL-1 production result in [10] was “does not reduce”. Further, the “production of TNF-α” value in series [11] was “inhibits”.
`Cc1nc(-c2ccc(OCC(C)C)c(C#N)c2)sc1C(=O)O` [febuxostat]: the “Response rate (<6 mg/dL)” value in series [8] (Cohort 1 (median baseline 9.2 mg/dL), febuxostat 40 mg alone) is reported as 67%; in series [8] (Cohort 1 (median baseline 9.2 mg/dL), febuxostat 40 mg alone, listed as Febuxostat), 67%; in series [8] (Cohort 2 (median baseline […]), febuxostat 80 mg alone), 56%; in series [8] (Cohort 2 (median baseline […]), febuxostat 80 mg alone, listed as Febuxostat) it was 56%. In addition, the “Percent patients <4 mg/dL” value in series [8] (setting [15]) and in series [8] (setting [16]) was 0% throughout. Besides, the “Percent sUA change at trough” value in [8] (setting [15]) is listed as −35%; in series [8] (setting [16]) it was −47%. The “Percent sUA change intraday” value in series [8] (setting [15]) is recorded as −44%; in series [8] (setting [16]) it was −52%. The “patients achieving sUA levels below 4 mg/dL or below 3 mg/dL” value in series [8] (either dose of febuxostat alone) is recorded as “No patient”.
